Source: article PMC5684193 (2017)

Columns and labels:
[1] = system: CBA-0 (DNA, aptamer) CCCCCTGGGTCGGGAGGGAAGGGGGTTGGGGGTGCGG; experiment: ITC; conditions: 140 mM NaCl, 2.5 mM KCl, K/Na phosphate (PBS), 2.5 mM MgCl2; PBS with MgCl2, pH 7.4, 25 °C
[2] = system: CBA-1 (DNA, aptamer) CCCCCTGGGTCGGGAGGGAAGGGGGTTGGGGGTGCGGG; experiment: ITC; conditions: 140 mM NaCl, 2.5 mM KCl, K/Na phosphate (PBS), 2.5 mM MgCl2; PBS with MgCl2, pH 7.4, 25 °C
[3] = system: CBA-1-GGC (DNA, aptamer) CCCCCCCCTGGGTCGGGAGGGAAGGGGGGGGTTGGGGGGGGTGCGGG; experiment: ITC; conditions: 140 mM NaCl, 2.5 mM KCl, K/Na phosphate (PBS), 2.5 mM MgCl2; PBS with MgCl2, pH 7.4, 25 °C
[4] = system: CBA-1-AAT (DNA, aptamer) TTTCCCCCTGGGTCGGGAGGGAAGGGGGAAATTAAAGGGGGTGCGGG; experiment: ITC; conditions: 140 mM NaCl, 2.5 mM KCl, K/Na phosphate (PBS), 2.5 mM MgCl2; PBS with MgCl2, pH 7.4, 25 °C
[5] = system: CBA-1-GGC-4G4 (DNA, aptamer) CCCCCCCCTGGGGTCGGGGAGGGGAAGGGGGGGGTTGGGGGGGGTGCGGGG; experiment: ITC; conditions: 140 mM NaCl, 2.5 mM KCl, K/Na phosphate (PBS), 2.5 mM MgCl2; PBS with MgCl2, pH 7.4, 25 °C
[6] = system: CBA-1-G14A (DNA, aptamer) CCCCCTGGGTCGGAAGGGAAGGGGGTTGGGGGTGCGGG; experiment: ITC; conditions: 140 mM NaCl, 2.5 mM KCl, K/Na phosphate (PBS), 2.5 mM MgCl2; PBS with MgCl2, pH 7.4, 25 °C
[7] = system: CBA-1-G34T (DNA, aptamer) CCCCCTGGGTCGGGAGGGAAGGGGGTTGGGGGTTCGGG; experiment: ITC; conditions: 140 mM NaCl, 2.5 mM KCl, K/Na phosphate (PBS), 2.5 mM MgCl2; PBS with MgCl2, pH 7.4, 25 °C
[8] = system: CBA-1-strand1 (DNA, aptamer) AAAAATGGGTCGGGAGGGAAGGGGGTTGGGGGTGCGGG; experiment: ITC; conditions: 140 mM NaCl, 2.5 mM KCl, K/Na phosphate (PBS), 2.5 mM MgCl2; PBS with MgCl2, pH 7.4, 25 °C; 250 µM codeine in syringe
[9] = system: CBA-1-strand3 (DNA, aptamer) CCCCCTGGGTCGGGAGGGAAGGGGGTTTATATTGCGGG; experiment: ITC; conditions: 140 mM NaCl, 2.5 mM KCl, K/Na phosphate (PBS), 2.5 mM MgCl2; PBS with MgCl2, pH 7.4, 25 °C; 250 µM codeine in syringe
[10] = system: CBA-1-strand21 (DNA, aptamer) GGGGGTGGGTCGGGAGGGAACCCCCTTGGGGGTGCGGG; experiment: ITC; conditions: 140 mM NaCl, 2.5 mM KCl, K/Na phosphate (PBS), 2.5 mM MgCl2; PBS with MgCl2, pH 7.4, 25 °C; 250 µM codeine in syringe
[11] = system: CBA-1-3G3T (DNA, aptamer) CCCCCTTTTTCTTTATTTAAGGGGGTTGGGGGTGCTTT; experiment: ITC; conditions: 140 mM NaCl, 2.5 mM KCl, K/Na phosphate (PBS), 2.5 mM MgCl2; PBS with MgCl2, pH 7.4, 25 °C; 250 µM codeine in syringe
[12] = system: CBA-1-G34R (DNA, aptamer) CCCCCTGGGTCGGGAGGGAAGGGGGTTGGGGGTCGGG; experiment: ITC; conditions: 140 mM NaCl, 2.5 mM KCl, K/Na phosphate (PBS), 2.5 mM MgCl2; PBS with MgCl2, pH 7.4, 25 °C; 250 µM codeine in syringe
[13] = system: CBA-1-G34C35R (DNA, aptamer) CCCCCTGGGTCGGGAGGGAAGGGGGTTGGGGGTGGG; experiment: ITC; conditions: 140 mM NaCl, 2.5 mM KCl, K/Na phosphate (PBS), 2.5 mM MgCl2; PBS with MgCl2, pH 7.4, 25 °C; 250 µM codeine in syringe
[14] = system: CBA-1-1/CBA-1-2 (DNA, aptamer) CCCCCTGGGTCGGGAGGGAAGGGGGT/TGGGGGTGCGGG; experiment: 1H NMR; conditions: 140 mM NaCl, 2.5 mM KCl, K/Na phosphate (PBS), 10% D2O, 25 °C, 200 µM DNA, 400 µM codeine
[15] = system: FAM-labeled CBA-0 (DNA, aptamer) CCCCCTGGGTCGGGAGGGAAGGGGGTTGGGGGTGCGG; experiment: DMS footprinting; conditions: 140 mM NaCl, 2.5 mM KCl, K/Na phosphate (PBS), 2.5 mM MgCl2; binding buffer, room temperature
[16] = system: FAM-labeled CBA-1 (DNA, aptamer) CCCCCTGGGTCGGGAGGGAAGGGGGTTGGGGGTGCGGG; experiment: DMS footprinting; conditions: 140 mM NaCl, 2.5 mM KCl, K/Na phosphate (PBS), 2.5 mM MgCl2; binding buffer, room temperature
[17] = system: CBA-1 (DNA, aptamer) CCCCCTGGGTCGGGAGGGAAGGGGGTTGGGGGTGCGGG; experiment: UV melting at 265 nm; conditions: 140 mM NaCl, 2.5 mM KCl, K/Na phosphate (PBS), 2.5 mM MgCl2; PBS with MgCl2, pH 7.4; 4 µM DNA, 8 µM codeine
[18] = system: CBA-1-1/CBA-1-2 (DNA, aptamer) CCCCCTGGGTCGGGAGGGAAGGGGGT/TGGGGGTGCGGG; experiment: UV melting at 265 nm; conditions: 140 mM NaCl, 2.5 mM KCl, K/Na phosphate (PBS), 2.5 mM MgCl2; PBS with MgCl2, pH 7.4
[19] = system: CBA-1-A14AP (DNA, aptamer, 2-aminopurine at 14) CCCCCTGGGTCGGGAGGGAAGGGGGTTGGGGGTGCGGG; experiment: 2-aminopurine fluorescence quenching; conditions: 140 mM NaCl, 2.5 mM KCl, K/Na phosphate (PBS), 2.5 mM MgCl2; 1 µM codeine, 25 °C
[20] = system: CBA-1-A15AP (DNA, aptamer, 2-aminopurine at 15) CCCCCTGGGTCGGGAGGGAAGGGGGTTGGGGGTGCGGG; experiment: 2-aminopurine fluorescence quenching; conditions: 140 mM NaCl, 2.5 mM KCl, K/Na phosphate (PBS), 2.5 mM MgCl2; 1 µM codeine, 25 °C
[21] = system: CBA-1-A20AP (DNA, aptamer, 2-aminopurine at 20) CCCCCTGGGTCGGGAGGGAAGGGGGTTGGGGGTGCGGG; experiment: 2-aminopurine fluorescence quenching; conditions: 140 mM NaCl, 2.5 mM KCl, K/Na phosphate (PBS), 2.5 mM MgCl2; 1 µM codeine, 25 °C

Kd [1]: 250 ± 80 nM
Kd [2]: 70 ± 10 nM
Kd [3]: 50 ± 20 nM
Kd [4]: 70 ± 30 nM
Kd [5]: 300 ± 170 nM
binding [6]: yes
binding [7]: weak
binding [8]: no
binding [9]: no
binding [10]: no
binding [11]: no
binding [12]: no
binding [13]: no
binding [14]: yes
binding [15]: yes
binding [16]: yes
binding [17]: yes
∆Tm [18]: ~ 4 °C
binding [19]: yes
binding [20]: yes
binding [21]: yes
Compound: COc1ccc2c3c1O[C@H]1[C@@H](O)C=C[C@H]4[C@@H](C2)N(C)CC[C@@]341
